For the assay, the target named is T1, Na^+ /H^+ Exchanger (Homo sapiens, UniProt P19634).
T1 construct: Human Intestinal Cancer Cells (HT-29); endogenous in cells; host or cells: HT-29
The assay can be described thus: Inhibition of the Na^+ /H^+ Exchanger in Human Intestinal Cancer Cells (HT-29). Type of assay: cell-based. The settings on record: HT-29 cells; BCECF fluorescence, cytoplasmic pH; 4 minutes at 37° C., pH 7.0. The protocol:
Inhibition of the Na^+ /H^+ Exchanger in Human Intestinal Cancer Cells (HT-29):
HT-29 cells were incubated in growth medium at 37° C., 5% CO2. After 3-5 days the growth medium was removed, the cells were washed and charged with 7.5 μM BCECF-AM (pH-sensitive fluorescent dye) at 37° C. without any CO2. After 30 minutes the cells were washed and acidified with the following medium: 70 mM choline chloride, 20 mM NH4 Cl, […], 1.8 mM CaC2, 5 mM glucose and 15 mM HEPES, pH 7.5.
After 6 minutes incubation at 37° C. without CO2, the cells were washed and incubated for 5 minutes with washing medium: 120 mM choline chloride, 5 mM KCl, 1 mM MgCl2, 1.8 mM CaCl2, 5 mM glucose and 15 mM MOPS, pH 7.0. The washing medium was removed and control medium was added with or without the test compound: 120 mM NaCl, 5 mM KCl, 1 mM MgCl2, 1.8 mM CaCl2, 5 mM glucose, 15 mM MOPS, pH 7.0.
The cells were incubated for 4 minutes at 37° C. without CO2 and measured by fluorimetry (CytoFluor 2350). The fluorescence of the dye BCECF was measured at the excitation wavelengths of 485 nm (pH sensitive) and 440 nm (non pH-sensitive) and at the emission wavelength of 530 nm. The cytoplasmic pH was calculated from the ratio of fluorescences at 485 and 440 nm. The fluorescence ratio was calibrated by measuring the fluorescence signal after equilibration of external and internal pH with nigericin.

The term IC50 denotes the concentration that inhibits the measured activity by half.

T1 sequence (P19634 whole entry): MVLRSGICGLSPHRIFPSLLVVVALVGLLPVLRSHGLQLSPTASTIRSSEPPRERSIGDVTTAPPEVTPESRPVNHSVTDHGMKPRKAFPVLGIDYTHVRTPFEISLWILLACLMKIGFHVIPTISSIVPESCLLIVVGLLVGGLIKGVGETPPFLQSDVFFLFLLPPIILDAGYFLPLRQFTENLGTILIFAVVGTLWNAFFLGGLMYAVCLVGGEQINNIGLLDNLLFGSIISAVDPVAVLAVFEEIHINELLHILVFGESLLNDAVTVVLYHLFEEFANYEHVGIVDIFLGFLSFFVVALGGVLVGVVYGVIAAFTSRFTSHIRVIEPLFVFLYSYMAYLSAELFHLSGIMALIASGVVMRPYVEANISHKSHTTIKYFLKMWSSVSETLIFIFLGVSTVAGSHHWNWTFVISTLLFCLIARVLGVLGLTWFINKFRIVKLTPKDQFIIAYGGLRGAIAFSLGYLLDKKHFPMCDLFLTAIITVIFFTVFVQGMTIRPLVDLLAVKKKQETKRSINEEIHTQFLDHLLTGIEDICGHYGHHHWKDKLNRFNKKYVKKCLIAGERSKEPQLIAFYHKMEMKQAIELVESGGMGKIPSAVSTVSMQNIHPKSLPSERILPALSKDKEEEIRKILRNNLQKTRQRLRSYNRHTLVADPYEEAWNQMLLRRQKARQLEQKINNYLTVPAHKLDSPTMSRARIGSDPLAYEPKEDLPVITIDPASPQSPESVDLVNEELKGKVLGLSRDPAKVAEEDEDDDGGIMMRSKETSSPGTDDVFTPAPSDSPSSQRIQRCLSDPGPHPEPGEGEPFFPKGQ

Consider `CS(=O)(=O)c1cc(C(=O)N=C(N)N)ccc1N1CCN(C(=O)c2ccco2)CC1` [Example 3], for which 29 nM corresponded to half-maximal inhibition (IC50). This lies in the double-digit nanomolar range. In the case of `CS(=O)(=O)c1cc(C(=O)N=C(N)N)ccc1N1CCN(C(=O)c2cccs2)CC1` [Example 4] it was 31 nM. In the case of `CN(C)CCN1CCN(c2ccc(C(=O)N=C(N)N)cc2S(C)(=O)=O)CC1` [Example 1] it was 500 nM.

These data come from patent publication US6114335A, “Benzoylguanidine derivatives, process for their preparation their use in the preparation of medicines” (Boehringer Ingelheim KG, priority 1996, dated 2000).
